Test results: patent publication US20220273196A1, “INGESTIBLE DEVICE AND ASSOCIATED METHODS” (Biora Therapeutics, Inc., priority 2017, published 2022)
Entries after “also recorded” stand apart in the source; their conditions may differ.

What was measured:
[1] = tested on: murine models of inflammatory bowel disease (IBD); conditions: numerous murine models; cited from earlier work
[2] = target: cyclophilin (Homo sapiens, UniProt P62937); conditions: cited from earlier work
[3] = Dissolving drug pills or powder in water for spectroscopy samples; format: physicochemical; conditions: pills or powder (Sigma A5000) in water, 0.1-10% (w/v) samples
From the text: Other test samples included anti-inflammatory drugs, e.g., Ibuprofen and Acetaminophen, dissolved in water. Yet other test samples included microcrystalline cellulose, which can be one primary filler material in anti-inflammatory drugs, dissolved in water. […] The Ibuprofen, Acetaminophen and microcrystalline cellulose samples held by the well plate 700B were used to perform spectroscopy of Ibuprofen, Acetaminophen and microcrystalline cellulose in reflectance mode using Benchtop spectrometers #5, #2 and #3. Further, the Ibuprofen and Acetaminophen samples were siphoned from the well plate 700B and combined into a few cuvettes. […] These Ibuprofen and Acetaminophen samples held by the cuvettes were used to perform spectroscopy of Ibuprofen and Acetaminophen in transmission mode using Benchtop spectrometers #4, #5, #2 and #3.
Some test samples included solutions of Ibuprofen having various concentrations. Ibuprofen powder (Sigma 11892) was dissolved in water directly in cuvettes having an optical path thickness of 10 mm. These solutions had Ibuprofen concentrations varying in the range of 0.1-10% (w/v). Other test samples included solutions of Acetaminophen having various concentrations. Acetaminophen powder (Sigma A5000) was dissolved in water directly in cuvettes having an optical path thickness of 10 mm. […]

Sequence of cyclophilin (P62937 whole entry): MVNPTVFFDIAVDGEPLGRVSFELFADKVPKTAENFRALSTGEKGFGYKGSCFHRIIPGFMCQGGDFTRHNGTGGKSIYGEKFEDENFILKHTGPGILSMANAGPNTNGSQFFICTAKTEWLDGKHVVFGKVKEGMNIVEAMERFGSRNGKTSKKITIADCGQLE

In the case of “L-glutamic acid polymer with L-alanine, L-lysine and L-tyrosine, acetate (salt) [Glatiramer acetate]”, the “effect on inflammation and pathological manifestations of IBD” value [1] is given as “reduce inflammation and ameliorate the pathological manifestations”.
In the case of `C=C/C=C/C[C@@H](C)[C@@H](O)[C@H]1C(=O)N[C@@H](CC)C(=O)N(C)CC(=O)N(C)[C@@H](CC(C)C)C(=O)N[C@@H](C(C)C)C(=O)N(C)[C@@H](CC(C)C)C(=O)N[C@@H](C)C(=O)N[C@H](C)C(=O)N(C)[C@@H](CC(C)C)C(=O)N(C)[C@@H](CC(C)C)C(=O)N(C)[C@@H](C(C)C)C(=O)N1C` [voclosporin], the “binding affinity for cyclophilin relative to cyclosporine A” value [2] is given as “comparable”.
With `CC(=O)Nc1ccc(O)cc1` [Acetaminophen] the solubility in water [3] was “limited solubility in water; also recorded: poor solubility”.
